These results are taken from patent US12492188B2, “1H-benzo[D]imidazole derivatives as TLR9 inhibitors for the treatment of fibrosis” (BRISTOL-MYERS SQUIBB COMPANY, priority 2020, dated 2025).

pIC50: −log10 of the molar value. Where two headings read alike, the source gives them in different places.

Holding throughout (type): cell-based
Test [1] concerns the target T1, human TLR9 (Homo sapiens, UniProt Q9NR96).
T1 construct: host or cells: HEK-Blue cells (HEK293-derived reporter line)
T1 sequence (Q9NR96 26-1032): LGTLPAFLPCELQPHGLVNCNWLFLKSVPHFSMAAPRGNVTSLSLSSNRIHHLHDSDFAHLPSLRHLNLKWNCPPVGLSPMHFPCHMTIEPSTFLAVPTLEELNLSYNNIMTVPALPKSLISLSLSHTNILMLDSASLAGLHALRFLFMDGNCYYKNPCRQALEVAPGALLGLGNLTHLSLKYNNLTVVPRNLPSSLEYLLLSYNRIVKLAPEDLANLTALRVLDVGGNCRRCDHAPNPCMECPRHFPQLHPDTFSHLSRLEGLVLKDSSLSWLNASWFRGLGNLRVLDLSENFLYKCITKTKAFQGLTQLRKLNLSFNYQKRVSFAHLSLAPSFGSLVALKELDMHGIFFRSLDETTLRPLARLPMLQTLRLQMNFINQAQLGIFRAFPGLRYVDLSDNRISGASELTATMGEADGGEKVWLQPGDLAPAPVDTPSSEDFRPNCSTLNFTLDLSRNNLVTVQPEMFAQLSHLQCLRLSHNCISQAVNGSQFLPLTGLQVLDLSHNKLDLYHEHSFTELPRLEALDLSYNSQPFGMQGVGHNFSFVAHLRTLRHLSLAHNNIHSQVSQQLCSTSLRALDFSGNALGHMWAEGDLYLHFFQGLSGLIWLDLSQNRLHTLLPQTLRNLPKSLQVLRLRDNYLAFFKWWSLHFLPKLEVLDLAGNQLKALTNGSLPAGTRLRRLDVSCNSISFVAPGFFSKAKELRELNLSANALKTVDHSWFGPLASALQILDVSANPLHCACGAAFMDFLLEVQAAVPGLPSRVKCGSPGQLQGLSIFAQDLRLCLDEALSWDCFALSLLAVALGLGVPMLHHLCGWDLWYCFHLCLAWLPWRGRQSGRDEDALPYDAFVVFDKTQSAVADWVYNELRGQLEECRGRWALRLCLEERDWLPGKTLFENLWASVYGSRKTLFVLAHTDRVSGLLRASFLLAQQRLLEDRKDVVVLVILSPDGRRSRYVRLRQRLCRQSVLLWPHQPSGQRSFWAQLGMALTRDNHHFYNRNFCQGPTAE
Briefly: TLR9 inhibition reporter assay (HEK-Blue cells, secreted embryonic alkaline phosphatase reporter). A digest of the protocol:
(§1)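 Agonist-driven SEAP output was measured in HEK-Blue reporter cells carrying human TLR7 (gardiquimod 7.5 μM), TLR8 (R848 15.9 μM) or TLR9 (ODN2006 5 nM). Compounds at 0.05 nM–50 μM final were added 30 min before stimulation at room temperature. After 22 h at 37 °C, percent inhibition was taken against agonist/DMSO wells and a reference inhibitor.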
In general terms: A reporter such as luciferase makes a cellular process visible.

Test [2] has as its target T2, human TLR8 (Homo sapiens, UniProt Q9NR97).
T2 construct: host or cells: HEK-Blue cells (HEK293-derived reporter line)
T2 sequence (Q9NR97 27-1041): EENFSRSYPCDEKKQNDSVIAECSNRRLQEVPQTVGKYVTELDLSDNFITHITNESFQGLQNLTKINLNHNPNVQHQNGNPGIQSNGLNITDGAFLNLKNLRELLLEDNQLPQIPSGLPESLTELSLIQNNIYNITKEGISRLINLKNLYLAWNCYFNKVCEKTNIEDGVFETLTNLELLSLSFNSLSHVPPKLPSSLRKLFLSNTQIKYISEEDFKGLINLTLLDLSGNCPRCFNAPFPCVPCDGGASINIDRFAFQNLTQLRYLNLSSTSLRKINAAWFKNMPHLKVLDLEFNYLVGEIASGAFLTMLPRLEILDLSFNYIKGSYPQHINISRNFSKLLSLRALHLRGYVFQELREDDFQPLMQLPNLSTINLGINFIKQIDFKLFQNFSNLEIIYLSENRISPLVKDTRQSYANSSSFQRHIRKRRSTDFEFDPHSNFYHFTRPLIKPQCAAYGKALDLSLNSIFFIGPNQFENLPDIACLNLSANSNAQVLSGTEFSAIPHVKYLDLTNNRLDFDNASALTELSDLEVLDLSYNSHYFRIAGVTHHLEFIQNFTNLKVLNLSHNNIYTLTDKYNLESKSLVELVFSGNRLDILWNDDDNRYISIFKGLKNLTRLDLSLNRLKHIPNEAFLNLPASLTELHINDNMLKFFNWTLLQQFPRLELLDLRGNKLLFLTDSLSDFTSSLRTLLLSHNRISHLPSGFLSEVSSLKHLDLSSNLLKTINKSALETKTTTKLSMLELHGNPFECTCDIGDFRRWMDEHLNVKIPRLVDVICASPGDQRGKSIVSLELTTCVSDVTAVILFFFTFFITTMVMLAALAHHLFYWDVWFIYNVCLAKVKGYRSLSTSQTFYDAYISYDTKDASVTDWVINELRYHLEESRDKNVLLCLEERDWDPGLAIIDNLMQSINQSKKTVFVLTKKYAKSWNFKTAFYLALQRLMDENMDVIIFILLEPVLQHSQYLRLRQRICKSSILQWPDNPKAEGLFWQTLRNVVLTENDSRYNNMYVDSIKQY
Description: TLR8 inhibition reporter assay (HEK-Blue cells, secreted embryonic alkaline phosphatase reporter). As to conditions: HEK-Blue cells overexpressing human TLR8, stimulated with R848 15.9 μM; read-out: TLR 8 IC50. A digest of the protocol: as §1

Test [3] has as its target T3, human TLR7 (Homo sapiens, UniProt Q9NYK1).
T3 construct: host or cells: HEK-Blue cells (HEK293-derived reporter line)
T3 sequence (Q9NYK1 27-1049): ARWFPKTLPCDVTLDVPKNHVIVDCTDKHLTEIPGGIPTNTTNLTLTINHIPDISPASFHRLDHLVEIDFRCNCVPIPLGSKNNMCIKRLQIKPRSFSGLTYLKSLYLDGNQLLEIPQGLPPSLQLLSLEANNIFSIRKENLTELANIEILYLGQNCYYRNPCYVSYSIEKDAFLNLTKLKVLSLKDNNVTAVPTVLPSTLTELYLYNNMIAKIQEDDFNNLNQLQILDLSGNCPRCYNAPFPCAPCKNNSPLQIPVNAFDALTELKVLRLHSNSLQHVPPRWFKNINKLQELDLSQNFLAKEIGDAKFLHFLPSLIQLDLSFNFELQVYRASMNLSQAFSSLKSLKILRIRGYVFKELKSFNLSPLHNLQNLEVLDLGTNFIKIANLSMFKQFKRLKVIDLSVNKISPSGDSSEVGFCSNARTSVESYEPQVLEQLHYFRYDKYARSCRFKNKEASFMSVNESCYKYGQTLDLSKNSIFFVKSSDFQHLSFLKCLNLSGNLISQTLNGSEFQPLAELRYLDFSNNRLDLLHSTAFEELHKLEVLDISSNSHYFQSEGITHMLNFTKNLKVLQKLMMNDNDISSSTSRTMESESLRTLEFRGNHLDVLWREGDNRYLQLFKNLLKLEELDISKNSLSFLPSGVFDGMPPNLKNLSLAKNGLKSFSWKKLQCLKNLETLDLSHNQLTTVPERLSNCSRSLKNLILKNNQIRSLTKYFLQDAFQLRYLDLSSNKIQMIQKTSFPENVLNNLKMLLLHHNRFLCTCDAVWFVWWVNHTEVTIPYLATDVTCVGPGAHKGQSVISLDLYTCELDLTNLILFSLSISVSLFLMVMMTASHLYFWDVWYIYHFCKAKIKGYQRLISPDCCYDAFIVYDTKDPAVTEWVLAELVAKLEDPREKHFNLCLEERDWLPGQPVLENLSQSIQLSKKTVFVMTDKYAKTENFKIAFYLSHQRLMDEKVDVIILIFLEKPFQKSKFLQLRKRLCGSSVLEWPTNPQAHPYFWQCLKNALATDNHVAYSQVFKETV
Description: TLR7 inhibition reporter assay (HEK-Blue cells, secreted embryonic alkaline phosphatase reporter). To be noted: HEK-Blue cells overexpressing human TLR7, stimulated with gardiquimod 7.5 μM; read-out: TLR 7 IC50. A digest of the protocol: as §1

Setting [4] is: HEK-Blue cells overexpressing human TLR9, stimulated with ODN2006 5 nM, read-out: TLR 9 IC50.
[5] abbreviates: HEK-Blue cells overexpressing human TLR9, stimulated with ODN2006 5 nM, 22 hour incubation, reporter readout.

What is called pIC50 is the IC50 on a negative log10 scale, so that one unit is a factor of ten. Turning to `Cn1c(-c2ccc(S(C)(=O)=O)cc2)nc2c(F)cc(C3CCN(C4CC5CCC(C4)N5C4COC4)CC3)cc21` (stereo not shown) [Example 286, 4-fluoro-1-methyl-2-(4-(methylsulfonyl)phenyl)-6-(1-(8-(oxetan-3-yl)-8-azabicyclo[3.2.1]octan-3-yl)piperidin-4-yl)-1H-benzo[d]imidazole], the pIC50 in test [1] (setting [4]) is 7.39; in test [1] (HEK-Blue human TLR9 reporter cells) it was 7.39; in test [2], less than 4.30; in test [3] it was 4.54.

Consider `COCCN1C2CCC1CC(N1CCC(c3cc(C)c4nc(-c5ccc(S(C)(=O)=O)cc5)n(C)c4c3)CC1)C2` (single isomer, unassigned) [Example 162, 6-(1-(8-(2-methoxyethyl)-8-azabicyclo[3.2.1]octan-3-yl)piperidin-4-yl)-1,4-dimethyl-2-(4-(methylsulfonyl)phenyl)-1H-benzo[d]imidazole], for which the pIC50 in test [1] is 7.21; in test [1] (setting [4]), 7.21; in test [2] it was less than 4.60; in test [3], 4.70.

On to `COc1ccc(-c2nc3ccc(C4CCN(C5CCN(C6CC6)CC5)CC4)cc3n2CC(F)F)cc1OC` [Example 33, 6-(1′-cyclopropyl-[1,4′-bipiperidin]-4-yl)-1-(2,2-difluoroethyl)-2-(3,4-dimethoxyphenyl)-1H-benzo[d]imidazole], for which the pIC50 in test [1] (setting [5]) is 6.17; in test [1] (setting [4]), 6.17; in test [2], 4.46; in test [3] it was 5.09.

With `COc1ccc(-c2nc3c(C)cc(C4CCN(C5CCN(CC(C)C)CC5)CC4)cc3[nH]2)cc1OC` [Example 43, 2-(3,4-dimethoxyphenyl)-6-(1′-isobutyl-[1,4′-bipiperidin]-4-yl)-4-methyl-1H-benzo[d]imidazole tris(2,2,2-trifluoroacetate)], the pIC50 in test [1] (setting [5]) is 8.01; in test [1] (setting [4]), 8.01; in test [2], 4.51; in test [3], 6.19.

On to `CCOP(=O)(OCC)c1ccc(-c2nc3c(C)cc(C4CCN(C5CCN(CC(C)C)CC5)CC4)cc3n2C)cc1` [Example 421, diethyl(4-(6-(1′-isobutyl-[1,4′-bipiperidin]-4-yl)-1,4-dimethyl-1H-benzo[d]imidazol-2-yl)phenyl)phosphonate], for which the negative-log IC50 (pIC50) in test [1] (setting [5]) is 6.85; in test [1] (setting [4]), 6.86; in test [2], less than 4.30; in test [3], 6.15.

As to `COc1ccc(-c2nc3c(C)cc(C4CCN(C5CC6(C5)CN(CC5CC5)C6)CC4)cc3n2C)cc1OC` [Example 48, 6-(1-(2-(cyclopropylmethyl)-2-azaspiro[3.3]heptan-6-yl)piperidin-4-yl)-2-(3,4-dimethoxyphenyl)-1,4-dimethyl-1H-benzo[d]imidazole], the pIC50 was 7.72 in test [1] (setting [5]), 7.72 in test [1] (setting [4]), less than 4.30 in test [2] and less than 4.30 in test [3].

As to `Cc1cc(-c2cc(F)cc(CN3CCC(N4CCCC4)CC3)c2)cc2c1nc(-c1ccc(S(C)(=O)=O)cc1)n2C` [Example 405, 6-(3-fluoro-5-((4-(pyrrolidin-1-yl)piperidin-1-yl)methyl)phenyl)-1,4-dimethyl-2-(4-(methylsulfonyl)phenyl)-1H-benzo[d]imidazole], the pIC50 is 7.68 in test [1] (setting [5]), 7.68 in test [1] (setting [4]), 6.05 in test [2] and 6.52 in test [3].

Take `CC(C)CN1CCC(N2CCC(c3cc4nc(-c5ccc(S(C)(=O)=O)cc5)n(C)c4cc3F)CC2)CC1` [Example 240, 6-fluoro-5-(1′-isobutyl-[1,4′-bipiperidin]-4-yl)-1-methyl-2-(4-(methylsulfonyl)phenyl)-1H-benzo[d]imidazole]: the pIC50 in test [1] was 6.92; in test [1] (setting [4]) it was 6.92; in test [2] it was less than 4.30; in test [3] it was 5.18.

As to `Cc1cc(C2CCN(C3CC4CCC(C3)N4CC3CC3)CC2)cc2c1nc(-c1ccc(S(C)(=O)=O)cc1)n2C` (single isomer, unassigned) [Example 154, 6-(1-(8-(cyclopropylmethyl)-8-azabicyclo[3.2.1]octan-3-yl)piperidin-4-yl)-1,4-dimethyl-2-(4-(methylsulfonyl)phenyl)-1H-benzo[d]imidazole], the pIC50 in test [1] was 7.52; in test [1] (setting [4]), 7.52; in test [2], less than 4.60; in test [3] it was 5.05.

With `COc1ccc(-c2nc3c(C)cc(C4CCN(C5CC6CCC(C5)N6C5CCOCC5)CC4)cc3n2C)cc1OC` (single isomer, unassigned) [Example 167, 2-(3,4-dimethoxyphenyl)-1,4-dimethyl-6-(1-(8-(tetrahydro-2H-pyran-4-yl)-8-azabicyclo[3.2.1]octan-3-yl)piperidin-4-yl)-1H-benzo[d]imidazole], the pIC50 in test [1] is 6.10; in test [1] (setting [4]), 6.10; in test [2] it was less than 4.60; in test [3], less than 4.60.
